Experimental data taken from ChEMBL document CHEMBL1127274, “Evaluation of (2S,4S)/(2R,4R) and (2S,4R)/(2R,4S) 6,6-N,N-dimethyl-2-methyl-2-oxo-1,3-dioxa-4-hexadecyl-6,aza-2-phosphacyclooctane bromide as inhibitors for protein kinase C, carnitine octanoyltransferase, and carnitine palmitoyltransferase” (Bioorg Med Chem Lett, 1994).

Key:
[1] = target: T1, Carnitine O-palmitoyltransferase 2, mitochondrial (Homo sapiens, UniProt P23786); test: Inhibitory potency against Carnitine Palmitoyltransferase (CPT-II); Range = 32-235 uM
T1 sequence (P23786 whole entry): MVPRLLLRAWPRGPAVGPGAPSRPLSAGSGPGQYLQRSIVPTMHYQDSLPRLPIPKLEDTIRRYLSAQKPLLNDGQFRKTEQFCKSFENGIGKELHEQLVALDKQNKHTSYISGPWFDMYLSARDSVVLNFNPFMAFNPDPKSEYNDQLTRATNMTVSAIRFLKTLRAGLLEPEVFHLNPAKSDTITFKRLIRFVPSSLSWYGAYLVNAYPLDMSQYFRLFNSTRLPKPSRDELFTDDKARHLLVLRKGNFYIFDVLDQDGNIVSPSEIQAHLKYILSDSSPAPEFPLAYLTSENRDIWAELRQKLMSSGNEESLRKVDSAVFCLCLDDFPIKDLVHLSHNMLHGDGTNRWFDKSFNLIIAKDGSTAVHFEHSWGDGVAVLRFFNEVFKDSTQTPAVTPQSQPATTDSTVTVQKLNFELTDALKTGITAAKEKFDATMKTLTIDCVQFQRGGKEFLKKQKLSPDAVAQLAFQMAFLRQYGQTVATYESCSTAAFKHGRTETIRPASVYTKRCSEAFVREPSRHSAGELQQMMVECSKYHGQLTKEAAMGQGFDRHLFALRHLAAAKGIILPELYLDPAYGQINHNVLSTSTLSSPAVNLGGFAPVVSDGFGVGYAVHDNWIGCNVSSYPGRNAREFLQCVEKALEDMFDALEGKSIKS

[2] = target: T2, Peroxisomal carnitine O-octanoyltransferase (Homo sapiens, UniProt Q9UKG9); test: Inhibitory potency against carnitine octanoyltransferase (COT); Range = 1300-4000 uM
T2 sequence (Q9UKG9 whole entry): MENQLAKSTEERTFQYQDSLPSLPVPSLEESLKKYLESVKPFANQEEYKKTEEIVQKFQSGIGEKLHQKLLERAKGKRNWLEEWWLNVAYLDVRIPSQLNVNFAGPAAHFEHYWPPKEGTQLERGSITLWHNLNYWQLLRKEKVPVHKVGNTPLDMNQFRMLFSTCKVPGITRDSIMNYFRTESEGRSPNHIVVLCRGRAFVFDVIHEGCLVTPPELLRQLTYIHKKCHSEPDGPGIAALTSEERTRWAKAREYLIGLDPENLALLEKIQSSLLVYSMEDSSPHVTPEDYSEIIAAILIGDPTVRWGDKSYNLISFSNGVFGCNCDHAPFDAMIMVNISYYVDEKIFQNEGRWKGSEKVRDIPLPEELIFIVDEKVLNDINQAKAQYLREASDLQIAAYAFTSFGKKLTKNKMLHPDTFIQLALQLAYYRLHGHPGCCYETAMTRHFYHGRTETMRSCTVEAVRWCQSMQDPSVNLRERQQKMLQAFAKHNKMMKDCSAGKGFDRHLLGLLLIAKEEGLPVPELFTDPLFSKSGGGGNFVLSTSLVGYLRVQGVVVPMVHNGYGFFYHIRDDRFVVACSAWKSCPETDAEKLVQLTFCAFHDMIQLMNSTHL

Which IC50 [1] does the source give for `CCCCCCCCCCCCCCCC[C@@]1(O)C[N+](C)(C)CCO1` here?
The IC50 was 0.235 mM.

And the IC50 [2]?
The IC50 was 4 mM.
